{"source": "ChEMBL document CHEMBL1142393", "about": "“Design and characterization of mechanism-based inhibitors for the tyrosine aminomutase SgTAM” (Bioorg Med Chem Lett, 2008)", "test": "Inhibition of Streptomyces globisporus TAM"}
{"smiles": "N[C@H](c1ccccc1)C(F)(F)C(=O)O", "values": [{"measurement": "IC50", "value": 7.3, "unit": "mM"}]}
{"smiles": "COc1ccc([C@H]2O[C@@H]2C(=O)O)cc1", "values": [{"measurement": "IC50", "value": 3, "unit": "mM"}]}
{"smiles": "O=C(O)[C@H]1O[C@@H]1c1ccccc1", "values": [{"measurement": "IC50", "value": 5.8, "unit": "mM"}]}
{"smiles": "O=C(O)[C@H]1O[C@@H]1c1ccc(F)cc1", "values": [{"measurement": "IC50", "value": 11.6, "unit": "mM"}]}
